Legend:
Type in all cases: in vivo
Stat3 [1] = assay: Stat3 protein levels (immunoblot) in kidneys of old mice (Example 2); settings: kidneys of 21-month-old mice; 1 mg/kg body weight/day intraperitoneally for three weeks; FIGS. 4C and 4D
Description: (§1) FIGS. 4A-4D show PGC-1α protein levels presented as an immunoblot (FIG. 4A) and quantified (FIG. 4B), and p-Stat3 protein levels presented as an immunoblot (FIG. 4C) and quantified (FIG. 4D), in the kidneys of 4-month old (“young”) and 21-month-old (“old”) mice, in which a cohort of the old mice were administered a STING inhibitor (“SI”), C-176, as described in Example 2.
(§2) A study was conducted to evaluate expression levels of various markers and cytokines under inflammatory conditions, and the impact of administering a STING inhibitor on expression and protein levels.
(§3) In a second aspect of the study, an inhibitor of STING, C-176, was administered (1 mg/kg body weight/day, administered intraperitoneally, for three weeks) to the 21-month-old mice.

PGC-1α [2] = assay: PGC-1α protein levels (immunoblot) in kidneys of old mice (Example 2); settings: kidneys of 21-month-old mice; 1 mg/kg body weight/day intraperitoneally for three weeks; FIGS. 4A and 4B
Description: as §1, §2, §3

p21 = p21 mRNA expression in kidneys of old mice (Example 2); settings: kidneys of 21-month-old mice; 1 mg/kg body weight/day intraperitoneally for three weeks; FIG. 3D
Description: (§4) FIGS. 3A-3F show mRNA expression of peroxisome proliferator-activated receptor-gamma coactivator (PGC)-1α (PGC-1α) (FIG. 3A), PGC-1β (FIG. 3B), ERR-alpha (ERRα) (FIG. 3C), p21 (FIG. 3D), interleukin (IL)-1β (FIG. 3E), and signal transducer and activator of transcription 3 (Stat3) (FIG. 3F) in the kidneys of 4-month old (“young”) and 21-month-old (“old”) mice, in which a cohort of old mice were administered a STING inhibitor (“SI”), C-176, as described in Example 2.
as §2
(§5) In one aspect of the study, mRNA expression levels of PGC-1α, PGC-1β, ERRα, p21, IL-1β, and Stat3 were examined in kidneys of mice that are 4 months old (young) and kidneys of mice that are 21 months old (aged and marked by inflammation).
as §3

IL-1β [3] = assay: IL-1β mRNA expression in kidneys of db/db mice (Example 3); settings: kidneys of 4-month-old db/db mice; 1 mg/kg body weight/day intraperitoneally for eight weeks; FIG. 5
Description: (§6) A study was conducted to evaluate mRNA expression and protein levels of various markers and cytokines in kidneys of 4-month-old db/db mice, which is a model of type 2 diabetes due to a deficiency in leptin receptor activity, and in 4-month-old db/m mice, which are nondiabetic controls; and the effects of administering STING inhibitor C-176 (1 mg/kg body weight/day, administered intraperitoneally, for eight weeks) to these mice.

p-Stat3 = p-Stat3 protein levels in kidneys of db/db mice (Example 3); settings: kidneys of 4-month-old db/db mice; 1 mg/kg body weight/day intraperitoneally for eight weeks; FIGS. 6A and 6B
Description: (§7) FIGS. 6A-6C show p-Stat3 protein levels presented as an immunoblot (FIG. 6A) and quantified (FIG. 6B), and protein levels of phospho-interferon regulatory factor (p-IRF) (FIG. 6C) in the kidneys of […] diabetic mice (“db/db”) and non-diabetic mice (“db/m”) mice, in which a cohort of the mice were administered STING inhibitor C-176, as described in Example 3.
as §6

PGC-1α [4] = assay: PGC-1α mRNA expression in kidneys of old mice (Example 2); settings: kidneys of 21-month-old mice; 1 mg/kg body weight/day intraperitoneally for three weeks; FIG. 3A
Description: as §4, §2, §5, §3

p-IRF3 = p-IRF3 protein levels in kidneys of db/db mice (Example 3); settings: kidneys of 4-month-old db/db mice; 1 mg/kg body weight/day intraperitoneally for eight weeks; FIG. 6C
Description: as §7, §6

IL-1β [5] = assay: IL-1β mRNA expression in kidneys of old mice (Example 2); settings: kidneys of 21-month-old mice; 1 mg/kg body weight/day intraperitoneally for three weeks; FIG. 3E
Description: as §4, §2, §5, §3

Stat3 [6] = assay: Stat3 mRNA expression in kidneys of old mice (Example 2); settings: kidneys of 21-month-old mice; 1 mg/kg body weight/day intraperitoneally for three weeks; FIG. 3F
Description: as §4, §2, §5, §3

[7] = system: inflammation in the kidneys of diabetic mice; assay: Inflammation in the kidneys of diabetic mice (Example 3); settings: db/db mice; 1 mg/kg body weight/day intraperitoneally for eight weeks
Description: as §6

PGC-1β = PGC-1β mRNA expression in kidneys of old mice (Example 2); settings: kidneys of 21-month-old mice; 1 mg/kg body weight/day intraperitoneally for three weeks; FIG. 3B
Description: as §4, §2, §5, §3

ERRα = ERRα mRNA expression in kidneys of old mice (Example 2); settings: kidneys of 21-month-old mice; 1 mg/kg body weight/day intraperitoneally for three weeks; FIG. 3C
Description: as §4, §2, §5, §3

cGAS [8] = assay: cGAS mRNA expression in kidneys of young and old mice (Example 1); settings: kidneys of 21-month-old mice; 25 mg/kg body weight/day intraperitoneally for eight weeks; FIG. 1B
Description: (§8) FIGS. 1A-1B show mRNA expression of STING (FIG. 1A) and cyclic guanosine monophosphate-adenosine monophosphate (cyclic GMP-AMP) synthase (cGAS) (FIG. 1B) in the kidneys of 4-month old (“young”) and 21-month-old (“old”) mice, in which a cohort of mice were administered a pan estrogen-related receptor (ERR) agonist, as described in Example 1.
(§9) A study was conducted to evaluate STING and cGAS under inflammatory conditions.
(§10) In one aspect of the study, mRNA expression and protein levels of STING and cGAS were assessed in kidneys of mice that are 4 months old (young) and kidneys of mice that are 21 months old (aged and marked by inflammation).
(§11) In a second aspect of the study, 4-month-old mice and 21-month-old mice were treated with a pan ERR agonist, SLU-PP-332 (25 mg/kg body weight/day, administered intraperitoneally, for eight weeks).

STING [9] = assay: STING mRNA expression in kidneys of young and old mice (Example 1); settings: kidneys of 21-month-old mice; 25 mg/kg body weight/day intraperitoneally for eight weeks; FIG. 1A
Description: as §8, §9, §10, §11

cGAS [10] = assay: cGAS protein levels (immunoblot) in kidneys of young and old mice (Example 1); settings: kidneys of 21-month-old mice; 25 mg/kg body weight/day intraperitoneally for eight weeks; FIGS. 2C and 2D
Description: (§12) FIGS. 2A-2D show STING protein levels presented as an immunoblot (FIG. 2A) and quantified (FIG. 2B), and cGAS protein levels presented as an immunoblot (FIG. 2C) and quantified (FIG. 2D), in the kidneys of 4-month old (“young”) and 21-month-old (“old”) mice, in which a cohort of mice were administered a pan ERR agonist, as described in Example 1.
as §9, §10, §11

STING [11] = assay: STING protein levels (immunoblot) in kidneys of young and old mice (Example 1); settings: kidneys of 21-month-old mice; 25 mg/kg body weight/day intraperitoneally for eight weeks; FIGS. 2A and 2B
Description: as §12, §9, §10, §11

SMILES	protein levels of Stat3 (Stat3 [1])	protein levels of PGC-1α (PGC-1α [2])	mRNA expression of p21 (p21)	mRNA expression of IL-1β (activation of IL-1β) (IL-1β [3])	p-Stat3 levels (p-Stat3)	mRNA expression of PGC-1α (PGC-1α [4])	p-IRF3 levels (p-IRF3)	mRNA expression of IL-1β (IL-1β [5])	mRNA expression of Stat3 (Stat3 [6])	inflammation in the kidneys of diabetic mice [7]	mRNA expression of PGC-1β (PGC-1β)	mRNA expression of ERRα (ERRα)	mRNA expression of cGAS (cGAS [8])	mRNA expression of STING (STING [9])	protein levels of cGAS (cGAS [10])	protein levels of STING (STING [11])
O=C(Nc1ccc(I)cc1)c1ccc([N+](=O)[O-])o1 [C-176, N-(4-iodophenyl)-5-nitro-2-furancarboxamide]	reversed the increase	reversed the decrease	reversed the increase	reversed the activation	reversed the increase	reversed the decrease	reversed the increase	reversed the increase	reversed the increase	decreases inflammation	reversed the decrease	reversed the decrease				
O=C(N/N=C/c1ccc2ccccc2c1)c1ccc(O)cc1 [SLU-PP-332]													significantly reversed the increase	significantly reversed the increase	significantly reversed the increase	significantly reversed the increase

Source: US20230201187A1, “USE OF NAD+ PRECURSORS, STING INHIBITORS, AND FXR AGONISTS FOR INHIBITING SARS-COV-2 (COVID-19)-INDUCED CYTOKINE RELEASE” (Georgetown University, priority 2020, published 2023)
